Measured values as given in EP2821071A1, “Compounds for breast cancer treatment” (Institut d'Investigació Biomèdica de Bellvitge (IDIBELL), priority 2013, dated 2015).
Blank lines part the entries; values can stand above or below the molecule they belong to.

Tests used:
platelet aggregation = conditions: cited from earlier work
[1] = test system: phenylephrine-induced contractions of rabbit aorta; conditions: cited from earlier work
MCF7-LTED cells = assay: MTT cell viability assay; format: cell-based
Experimental: (§1) MCF7-LTED cells were established in phenol red-free Roswell Park Memorial Institute medium containing 10% dextran-coated charcoal-stripped fetal bovine serum. Cellular viability was evaluated using a standard methylthiazol tetrazolium (MTT; Sigma-Aldrich) assay. The results of these assays are expressed relative to vehicle treated controls and to the original time point.
MCF7 and MCF7-LTED cells were plated in 384-well microtiter plates and five compound dilutions (1 nM to 10 µM final concentration) from the LOPAC library (1,258 compounds, Sigma-Aldrich) were added to the cultures. Cell viability was assessed after 72 hours using MTT-based assays and the EnVision spectrofluorometer (Perkin-Elmer). The screen was performed in triplicate. The quality of the screen (Z'-factor > 0.5 for all screens) and the data was analyzed using the cell HTS2 module in the ScreenSaver database. The data was normalized between 0 and 1 using positive (1 µM phenylarsene oxide, Sigma-Aldrich) and negative (0.1% dimethyl sulfoxide, Merck) controls for cell viability. For hit selection, the difference between the normalize percentage inhibition (NPI) in MCF7 and MCF7-LTED cells was calculated by subtraction [ΔNPI = NPI(MCF7-LTED) - NPI(MCF7)] and the differentials were clustered with the MeV software package using the Cluster Affinity Search method with the Euclidean distance metric (threshold of 0.7).
Acquired resistance to aromatase inhibitors in postmenopausal women can be modeled in long-term estrogen-deprived (LTED) MCF7 cells. Using this model, a cell-based chemical compound screen was carried out to identify potential therapeutic strategies that could prevent and/or overcome resistance. More than 1,200 compounds were assessed for their differential effect on the viability (as defined by MTT-based assays) of MCF7-LTED cells relative to the parental MCF7 cells.
Having identified the comparative inhibitory effect of YC-1 on the viability of MCF7-LTED cells, we evaluated the effect of this compound on a collection of breast cancer cell lines. […]

MCF7-HER2 = assay: MTT cell viability assay; format: cell-based; conditions: MCF7-HER2 cell line
Experimental: as §1
(§2) Having identified the comparative inhibitory effect of YC-1 on the viability of MCF7-LTED cells, we evaluated the effect of this compound on a collection of breast cancer cell lines. […] For the remaining sensitive cell lines (as defined by an IC50 < 10 µM threshold), no associations with ERα and/or progesterone receptor (PR) and/or human epidermal growth factor receptor 2 (HER2) were observed (Table 1). Table 1. YC-1 IC50 (µM) values in breast cancer cell lines

MCF10A = assay: MTT cell viability assay; format: cell-based; conditions: Homo sapiens, MCF-10A, MCF10A cell line
Experimental: as §1, §2

HCC1937 = assay: MTT cell viability assay; format: cell-based; conditions: Homo sapiens, HCC1937 cell line
Experimental: as §1, §2

MDA-MB-231 = assay: MTT cell viability assay; format: cell-based; conditions: Homo sapiens, MDA-MB-231 cell line
Experimental: as §1, §2

SKBR3 = assay: MTT cell viability assay; format: cell-based; conditions: Homo sapiens, SK-BR-3, SKBR3 cell line
Experimental: as §1, §2

MDA-MB-468 = assay: MTT cell viability assay; format: cell-based; conditions: Homo sapiens, MDA-MB-468 cell line
Experimental: as §1, §2

ZR751 = assay: MTT cell viability assay; format: cell-based; conditions: Homo sapiens, ZR-75-1, ZR751 cell line
Experimental: as §1, §2

AU565 = assay: MTT cell viability assay; format: cell-based; conditions: Homo sapiens, AU565 cell line
Experimental: as §1, §2

BT474 = assay: MTT cell viability assay; format: cell-based; conditions: Homo sapiens, BT-474, BT474 cell line
Experimental: as §1, §2

MDA-MB-453 = assay: MTT cell viability assay; format: cell-based; conditions: Homo sapiens, MDA-MB-453 cell line
Experimental: as §1, §2

T47D = assay: MTT cell viability assay; format: cell-based; conditions: Homo sapiens, T47D cell line
Experimental: as §1, §2

ERα = assay: Subcellular localization of ERα after YC-1 treatment; format: cell-based; conditions: MCF7-LTED and MCF7 cells; no substantial differences between the two
Text: (§3) To determine the YC-1 mechanism of action that may be selective in models of acquired resistance, the subcellular localization of ERα was first examined. Although ERα levels and localization were altered by YC-1 treatment, no substantial differences were observed between MCF7-LTED and MCF7 cells. Subsequently, whole-genome expression data was obtained and analyzed for the basal and YC-1-exposed conditions in both cell lines. Consistent with the results described above, expression of the ribosome pathway clearly distinguished MCF7-LTED and MCF7 cells in basal conditions. […] In contrast, exposure of MCF7-LTED cells to YC-1 led to alteration of the cell cycle pathway and a decrease in a central positive regulator of the cell cycle, E2F1.

[2] = test system: phospho-serine 235/236 ribosomal S6 protein; assay: Phospho-S6 after YC-1 exposure of MCF7 cells; format: cell-based; conditions: MCF7 cells exposed to YC-1
Text: as §3

MCF7 cells = assay: MTT cell viability assay; format: cell-based; conditions: Homo sapiens, MCF7 cell line
Experimental: as §1
[…] Cell viability was assessed after 72 hours using MTT-based assays and the EnVision spectrofluorometer (Perkin-Elmer). The screen was performed in triplicate. The quality of the screen (Z'-factor > 0.5 for all screens) and the data was analyzed using the cell HTS2 module in the ScreenSaver database. […] For hit selection, the difference between the normalize percentage inhibition (NPI) in MCF7 and MCF7-LTED cells was calculated by subtraction [ΔNPI = NPI(MCF7-LTED) - NPI(MCF7)] and the differentials were clustered with the MeV software package using the Cluster Affinity Search method with the Euclidean distance metric (threshold of 0.7).
Acquired resistance to aromatase inhibitors in postmenopausal women can be modeled in long-term estrogen-deprived (LTED) MCF7 cells. […] More than 1,200 compounds were assessed for their differential effect on the viability (as defined by MTT-based assays) of MCF7-LTED cells relative to the parental MCF7 cells. […]

E2F1 = E2F1 after YC-1 exposure of MCF7-LTED cells; format: cell-based; conditions: MCF7-LTED cells exposed to YC-1
Text: as §3

SMILES: Nc1nc(-c2nn(Cc3ccccc3F)c3ncccc23)ncc1C1CC1 [BAY 41-2272]
IC50 (platelet aggregation): 0.036 µM | IC50 [1]: 0.3 µM | differences in cell viability (MCF7-LTED cells; MCF7-LTED versus MCF7 cells, validation, Fig. 1C): differences in cell viability, although of lesser magnitude

IC50 (MCF7-HER2): 187 µM | IC50 (HCC1937): 253 µM | IC50 (MDA-MB-231): 4480 µM | IC50 (SKBR3): 1.6 µM | IC50 (MDA-MB-468): 49 µM | IC50 (BT474): 319 µM | IC50 (MDA-MB-453): 250 µM | IC50 (T47D): 8.2 µM | IC50 (MCF7-LTED cells; MCF7-LTED cell line (long-term estrogen-deprived), cell viability): 4.9 µM | IC50 (MCF7 cells): 131 µM
SMILES: OCc1ccc(-c2nn(Cc3ccccc3)c3ccccc23)o1 [YC-1, 3-(5'-hydroxymethyl-2'-furyl)-1-benzylindazole]
IC50 (MCF10A): 99 µM | IC50 (ZR751): 0.3 µM | IC50 (AU565): 1.3 µM | ERα levels and localization (ERα): altered | phospho-serine 235/236 ribosomal S6 protein [2]: decrease | E2F1 (E2F1): decrease

SMILES: COc1cc2ncnc(Nc3ccc(F)c(Cl)c3)c2cc1OCCCN1CCOCC1 [Gefitinib, reference compound]
differences in the growth rate of the two cellular models (MCF7-LTED cells; MCF7-LTED versus MCF7 cells, Fig. 1D): No differences
